US7563805B2, “Tri-, tetra-substituted-3-aminopyrrolidine derivative” (Daiichi Pharmaceutical Co., Ltd., priority 2005, dated 2009)
≈ marks a conversion by molar mass, not a printed value. Read-outs that look alike come from different tables or passages of the source.

Experiments:
CYP3A4 = CYP3A4 (Homo sapiens, UniProt P08684); experiment: mechanism-based inhibition (MBI) of CYP3A4, hydroxylation at position 1 of midazolam; conditions: inhibition of midazolam 1-hydroxylation; dependence on preincubation time and drug concentration (FIG. 1)
Protocol: Mechanism-based inhibition (MBI) of CYP3A4 was evaluated by using inhibition of hydroxylation at position 1 of midazolam.

E. coli NIHJ = experiment: antibacterial activity (MIC), standard method of Japanese Society of Chemotherapy; conditions: Escherichia coli
E. faecalis, ATCC 19433 = experiment: as above; conditions: E. faecalis
E. coli strain E77156 = experiment: rat simple cystitis model (E. coli); format: in vivo
[1] = system: Mycobacterium tuberculosis (sensitive bacteria); experiment: anti-Mycobacterium tuberculosis (sensitive bacteria) activity, MIC; format: cell-based
S. aureus, 209P = experiment: antibacterial activity (MIC), standard method of Japanese Society of Chemotherapy; conditions: Staphylococcus aureus
[2] = format: in vivo; conditions: 30 minutes observation
Protocol: The test substance was intracisternally administered to male Slc:ddy mice (6 animals per group), and the convulsion and death were monitored for each cage until 30 minutes after the administration. The test substance was dissolved in 5 μl of 1% aqueous solution of lactic acid, and the dose was 5, 15, or 50 μg per animal.

S. marscecens, 10100 = experiment: antibacterial activity (MIC), standard method of Japanese Society of Chemotherapy
[3] = female, cynomolgus monkey, in vivo
hERG K+ channel = hERG K+ channel (Homo sapiens, UniProt Q12809); experiment: hERG-K^+ channel blocking effect
[4] = system: bone marrow cells (polychromatic erythrocytes); experiment: mouse bone marrow micronucleus test; format: in vivo, Slc:ddY male mice; conditions: single i.v. dose, 24 h, Example 2: 50, 100 mg/kg, Example 3: 100, 150 mg/kg, Example 9: 50, 100, 150 mg/kg
Protocol: The control was 0.1 mol/l NaOH/physiological saline solvent, and the positive control was cyclophosphamide (cyclophoshamide, CP) dissolved and diluted in physiological saline. All samples were sterilized by filtering through Milex GS filter (0.22 μm). Each solution was intravenously administered at a dose of 10 mL/kg in single dose at an administration rate of 0.2 mL/min.
Bone marrow cells were collected from thigh bone at 24 hours after the administration, and smear preparation was prepared. After staining with acridine orange, 1000 polychromatic erythrocytes per animal were observed under fluorescence microscope to count frequency of micrronucleated polychromatic erythrocyte and ratio of the orthochromatic erythrocytes to the polychromatic erythrocyte in 1000 erythrocytes.

[5] = parameters: species or system guinea pigs (Slc:Hertley); conditions: male, Slc:Hertley, guinea pig, in vivo
Protocol: Guinea pig maximization test (GPMT) which is a widely accepted model for delayed antigenicity was conducted according to the method of Mugnusson et al. (J. invest. Dermatol., 52, 1969) by using a cutaneous sensitization concentration of 1% and a patch sensitization and induction concentration of 10%. At day 1, the animal was sensitized by cutaneously administering the test substance (the quinolone compounds and the control: vehicle, vaseline) (1% solution in physiological saline+FCA emulsion) at the back of the head of the shaved guinea pigs (7 week old male Slc:Hertley). At day 7, lauryl sodium sulfate (SLC) was applied for stimulus (adjuvant treatment), and on the next day, the test substance coated on a wax paper was patched onto the shaved skin to for sealed sensitization, and after 48 hours (at day 10), the waxed paper was removed. The skin reaction was observed upon the removal. On day 22, the test substance (10%) was patched onto the anterior side of the body for induction, and the induction patching was removed after 24 hours. On the next day (at day 24) and the next day (at day 25), the skin reaction was evaluated according to the description of the document as mentioned above. Erythema and edema were scored, and the case with the total score of 2 or higher was evaluated to be positive with the maximum of the score being 7.

P. aeruginosa, 32104 = experiment: antibacterial activity (MIC), standard method of Japanese Society of Chemotherapy; conditions: Pseudomonas aeruginosa
[6] = system: S. pneumoniae, J24 (penicillin-intermediate resistant bacteria); experiment: as above
[7] = system: S. aureus, 87037 (LVFX-resistant MRSA); experiment: as above; conditions: Staphylococcus aureus, MRSA, S. aureus, 87037 (LVFX-resistant MRSA)
[8] = system: Mycobacterium tuberculosis (quinolone sensitive); experiment: anti-Mycobacterium tuberculosis (quinolone sensitive) activity, MIC; format: cell-based

Chain of hERG K+ channel (Q12809 whole entry): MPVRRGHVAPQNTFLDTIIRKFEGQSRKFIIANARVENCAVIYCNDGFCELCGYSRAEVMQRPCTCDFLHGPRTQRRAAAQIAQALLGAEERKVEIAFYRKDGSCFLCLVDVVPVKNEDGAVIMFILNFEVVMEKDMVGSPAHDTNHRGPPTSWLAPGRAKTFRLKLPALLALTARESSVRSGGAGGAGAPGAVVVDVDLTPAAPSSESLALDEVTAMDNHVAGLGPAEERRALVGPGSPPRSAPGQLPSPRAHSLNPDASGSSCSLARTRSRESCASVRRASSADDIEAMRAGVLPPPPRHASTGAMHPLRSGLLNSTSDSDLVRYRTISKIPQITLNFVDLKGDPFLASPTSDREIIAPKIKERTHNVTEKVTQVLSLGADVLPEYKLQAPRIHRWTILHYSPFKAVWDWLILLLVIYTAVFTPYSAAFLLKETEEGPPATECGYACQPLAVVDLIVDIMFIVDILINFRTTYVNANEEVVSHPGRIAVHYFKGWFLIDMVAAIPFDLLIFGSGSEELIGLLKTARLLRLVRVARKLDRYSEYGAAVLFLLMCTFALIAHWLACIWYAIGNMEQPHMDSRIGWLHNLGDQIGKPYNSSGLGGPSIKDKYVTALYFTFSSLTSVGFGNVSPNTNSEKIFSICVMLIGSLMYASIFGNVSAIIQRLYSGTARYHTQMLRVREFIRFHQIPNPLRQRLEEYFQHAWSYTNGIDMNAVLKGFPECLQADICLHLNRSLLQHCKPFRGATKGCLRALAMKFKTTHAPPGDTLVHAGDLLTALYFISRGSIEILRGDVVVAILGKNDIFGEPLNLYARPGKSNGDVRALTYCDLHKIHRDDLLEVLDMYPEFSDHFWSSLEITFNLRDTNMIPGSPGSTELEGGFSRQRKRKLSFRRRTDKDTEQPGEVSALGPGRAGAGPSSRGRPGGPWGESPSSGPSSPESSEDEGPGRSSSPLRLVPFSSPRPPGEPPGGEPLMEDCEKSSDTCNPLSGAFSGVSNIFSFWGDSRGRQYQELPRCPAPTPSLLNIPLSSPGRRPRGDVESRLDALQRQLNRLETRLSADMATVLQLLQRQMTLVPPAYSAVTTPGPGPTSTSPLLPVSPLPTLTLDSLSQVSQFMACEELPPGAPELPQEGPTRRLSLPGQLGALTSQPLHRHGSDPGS
Chain of CYP3A4 (P08684 whole entry): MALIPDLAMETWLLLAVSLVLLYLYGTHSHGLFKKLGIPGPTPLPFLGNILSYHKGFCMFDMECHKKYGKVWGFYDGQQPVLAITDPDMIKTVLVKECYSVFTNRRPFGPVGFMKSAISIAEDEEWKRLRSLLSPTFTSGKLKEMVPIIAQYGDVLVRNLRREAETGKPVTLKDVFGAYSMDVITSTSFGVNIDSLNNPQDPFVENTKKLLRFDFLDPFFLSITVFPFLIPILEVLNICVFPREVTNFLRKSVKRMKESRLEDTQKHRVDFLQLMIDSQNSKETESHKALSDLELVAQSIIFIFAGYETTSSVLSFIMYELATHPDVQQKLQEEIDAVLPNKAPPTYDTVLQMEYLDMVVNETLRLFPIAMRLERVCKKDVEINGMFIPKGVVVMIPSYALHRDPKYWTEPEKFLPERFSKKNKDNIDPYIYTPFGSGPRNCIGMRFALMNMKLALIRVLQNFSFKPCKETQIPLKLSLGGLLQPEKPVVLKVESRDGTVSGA

COc1c(N2CC(C)(N)C3(CC3)C2)c(F)cc2c(=O)c(C(=O)O)cn([C@@H]3C[C@@H]3F)c12 (stereo partly drawn) [Example 9, 7-(7-Amino-7-methyl-5-azaspiro[2.4]heptan-5-yl)-6-fluoro-1-[(1R,2S)-2-fluorocyclopropyl]-8-methoxy-1,4-dihydro-4-oxoquinoline-3-carboxylic acid]
mechanism-based inhibition (MBI) of CYP3A4 (CYP3A4): weak inhibition
MIC (E. coli NIHJ): 0.025 µg/mL (≈ 0.0596 µM)
MIC (E. faecalis, ATCC 19433): 0.2 µg/mL (≈ 0.477 µM)
therapeutic effect compared with Comparative Compound 1 (E. coli strain E77156; oral single dose 5 mg/kg/day): significantly stronger than the Comparative Compound 1
number of bacteria in the bladder (E. coli strain E77156; oral single dose 20 or 80 mg/kg/day, next day of administration (FIG. 4)): significant decrease in the number of bacteria
MIC ([1]; H37RV, strain H37Rv): 0.03 µg/mL (≈ 0.0715 µM)
MIC ([1]; strain Kurono): 0.03 µg/mL (≈ 0.0715 µM)
MIC ([1]; strain Ravenel): 0.03 µg/mL (≈ 0.0715 µM)
MIC ([1]; strain TB-s 2): 0.06 µg/mL (≈ 0.143 µM)
MIC ([1]; strain TB-s 3): 0.06 µg/mL (≈ 0.143 µM)
MIC ([1]; strain TB-s 4): 0.06 µg/mL (≈ 0.143 µM)
MIC ([1]; strain TB-s 5): 0.06 µg/mL (≈ 0.143 µM)
MIC ([1]; strain TB-s 6): 0.06 µg/mL (≈ 0.143 µM)
MIC ([1]; strain TB-s 7): 0.06 µg/mL (≈ 0.143 µM)
MIC ([1]; strain TB-s 8): 0.03 µg/mL (≈ 0.0715 µM)
MIC ([1]; strain TB-s 9): 0.06 µg/mL (≈ 0.143 µM)
MIC ([1]; strain TB-s 10): 0.03 µg/mL (≈ 0.0715 µM)
MIC ([1]; strain TB-s 11): 0.06 µg/mL (≈ 0.143 µM)
MIC ([1]; strain TB-s 12): 0.125 µg/mL (≈ 0.298 µM)
MIC ([1]; strain TB-s 13): 0.06 µg/mL (≈ 0.143 µM)
MIC ([1]; strain TB-s 14): 0.06 µg/mL (≈ 0.143 µM)
MIC ([1]; strain TB-s 15): 0.06 µg/mL (≈ 0.143 µM)
MIC ([1]; strain TB-s 16): 0.06 µg/mL (≈ 0.143 µM)
MIC ([1]; strain TB-s 17): 0.06 µg/mL (≈ 0.143 µM)
MIC ([1]; strain TB-s 18): 0.06 µg/mL (≈ 0.143 µM)
MIC ([1]; strain TB-s 19): 0.06 µg/mL (≈ 0.143 µM)
MIC ([1]; strain TB-s 20): 0.06 µg/mL (≈ 0.143 µM)
MIC ([1]; strain TB-s 21): 0.06 µg/mL (≈ 0.143 µM)
MIC ([1]; strain TB-s 22): 0.03 µg/mL (≈ 0.0715 µM)
MIC (S. aureus, 209P): 0.025 µg/mL (≈ 0.0596 µM)
convulsant activity (animals affected / 6 animals per group) ([2]; 5 μg/mouse intracisternal): 0/6
convulsant activity (animals affected / 6 animals per group) ([2]; 15 μg/mouse intracisternal): 2/6
convulsant activity (animals affected / 6 animals per group) ([2]; 50 μg/mouse intracisternal): 6/6
MIC (S. marscecens, 10100): 0.1 µg/mL (≈ 0.238 µM)
blood penetration, times higher than Comparative compound 1 [3]: about 2.5 times
urine excretion rate, times higher than Comparative compound 1 [3]: more than 2 times
Recovery (%) in urine in relation to the amount administered, Recovery (%) including conjugate ([3]; 5 mg/kg): 59.5%
inhibition at 30 µM (hERG K+ channel): 7.4 ± 4.5%
inhibition at 100 µM (hERG K+ channel): 10.2 ± 5.4%
inhibition at 300 µM (hERG K+ channel): 20.1 ± 7.4%
micronucleus induction rate versus control, evaluation result [4]: negative
Average score in GPMT [5]: 0
MIC (P. aeruginosa, 32104): 0.39 µg/mL (≈ 0.93 µM)
MIC [6]: 0.1 µg/mL (≈ 0.238 µM)
MIC [7]: 0.78 µg/mL (≈ 1.86 µM)
MIC ([8]; strain 1 (QR-3)): 0.125 µg/mL (≈ 0.298 µM)
MIC ([8]; strain 2 (QR-6)): 0.5 µg/mL (≈ 1.19 µM)
MIC ([8]; strain 3 (QR-1)): 0.25 µg/mL (≈ 0.596 µM)
MIC ([8]; strain 4 (QR-9)): 0.25 µg/mL (≈ 0.596 µM)
MIC ([8]; strain MDR 1): 0.125 µg/mL (≈ 0.298 µM)
MIC ([8]; strain MDR 3): 0.125 µg/mL (≈ 0.298 µM)
MIC ([8]; strain MDR 4): 0.25 µg/mL (≈ 0.596 µM)
MIC ([8]; strain MDR 5): 0.5 µg/mL (≈ 1.19 µM)
MIC ([8]; strain MDR 7): 0.125 µg/mL (≈ 0.298 µM)
MIC ([8]; strain MDR 9): 0.125 µg/mL (≈ 0.298 µM)
MIC ([8]; strain MDR 12): 0.125 µg/mL (≈ 0.298 µM)
MIC ([8]; strain S 1): 1 µg/mL (≈ 2.38 µM)
